Laboratory results as given in ChEMBL document CHEMBL1150060, “Potent inhibitors of histamine release, two novel triterpenoids from the Okinawan marine sponge Penares incrustans” (J Nat Prod, 1992).

How the values were obtained:
Mast cell = assay: Inhibition of anti-IgE-induced histamine release in rat peritoneal mast cells; assay type: functional, cell-based
[1] = Cytotoxicity against rat peritoneal mast cells assessed as cell viability by trypan blue exclusion assay; assay type: cell-based; conditions: read-out: Activity

SMILES | Activity (Mast cell) | IC50 (Mast cell) [µM] | viability [1] [%]
CC(=O)O[C@H]1CC[C@]2(C)C3=C(CC[C@H]2C1(C)C)[C@]1(C(=O)O)CC[C@H]([C@H](C)CCC=C(C)C)[C@@]1(C)CC3 [ACETYLPENASTEROL] | Dose-dependent effect | 10 | 97
CC(C)=CCC[C@@H](C)[C@H]1CC[C@@]2(C(=O)O)C3=C(CC[C@]12C)[C@@]1(C)CCC(=O)C(C)(C)[C@@H]1CC3 [PENASTERONE] | Dose-dependent effect | 1.5 | 97
